Laboratory results published in patent US20090291064A1 (priority 2008, published 2009).
Read-outs that look alike come from different tables or passages of the source.

Assays:
in vitro = conditions: pig, LC50, WST-1 viability
CYP2 = test system: CYP2
Description: (§1) Several CYP450 enzymatic activities were investigated in PICM-19H cells to determine the presence and inducible nature of major CYP450 isoforms. […] Cells were washed with PBS and appropriate inducer medium was added for 48 h prior to experimentation.
(§2) CYP450 activity was assessed in T25 cultures of PICM-19H cells that were grown for 3 wk post-passage. T25 cultures of APH or HepG2 C3A cells were tested after 3 d of primary culture and at 1 wk post-passage or near confluency, respectively. […] After the initial induction, cells were washed and given a non-fluorescent substrate for CYP1A1, CYP1A2, CYP2, or CYP3A (7-ERF, 7-MRF, MFC, and BFC, respectively). […] Medium samples were collected, centrifuged to remove cell debris (14,000×g, 2 min) and frozen at −80° C. until analyzed. […] Briefly, samples were incubated at 37° C. with or without β-glucuronidase/arylsulphatase (15 Fishman/120 Roy units/ml, Roche Applied Sciences) in pH 4.5 acetate buffer for 2 h to release any fluorescent reaction product that had been conjugated via sulfation or glucurondation phase II conjugation reactions. Standard curves contained resorufin or 7-HFC were treated identically to the experimental medium samples. Fluorescence was determined in an HTS 7000 plate reader; excitation/emission filter pairs were 530/590 and 410/510 for resorufin and 7-HFC, respectively. To determine relative conjugation activity, fluorescence was also determined directly without incubating first in β-glucuronidase/arylsulphatase. Since conjugated forms of resorufin and 7-HFC are non-fluorescent, the difference between the direct and indirect fluorescence measurements represents the amount of product which had been modified by conjugating enzymes.

CYP1A1 = conditions: pig
Description: as §1, §2

CYP 1A2 = test system: CYP 1A2
Description: as §1, §2

Structure (SMILES) | toxicity in glutathione-depleted cells (PICM-19H cells) | CC50 (PICM-19H cells; pig) [mM] | CC50 (in vitro) [mM] | MFCD activity induction (in words) (CYP2) | increase in EROD activity (CYP1A1) [fold] | MROD activity (in words) (CYP 1A2) | increase in BFCD activity compared to non-induced controls (CYP3A; pig) | MFCD activity induction (in words) (CYP2; PICM-19H cells, 48 h with 1 mM PHB, 50 μM Rif or 5 μM 3-MC) | induction of MROD activity (CYP 1A2; PICM-19H cells, 48 h with 5 μM 3-MC, vs non-induced) [fold] | induction of BFCD activity (CYP3A; PICM-19H cells, 48 h with 5 μM 3-MC) [fold]
CC(=O)Nc1ccc(O)cc1 [acetaminophen] | enhanced | ~13 | 12.6 ± 0.75 | – | – | – | – | – | – | –
CCC1(c2ccccc2)C(=O)NC(=O)NC1=O [PHB, phenobarbital] | – | – | – | equally induced | 7 | low | approximately 50% | – | – | –
Cc1ccc2cc3c(ccc4ccccc43)c3c2c1CC3 [3-MC, 3-methylcholanthrene] | – | – | – | – | 198 | – | – | equally induced | 5.5 | 5.8
